The text below walks through data of patent US4977180A, “Novel prolinal derivatives” (Ono Pharmaceutical Co., Ltd., priority 1987, dated 1990).

Where a SMILES comes first, the peptide text is derived from it. [ ]: non-standard residue; d: D form. The star is where a group is joined. ξ: configuration not given here. Cbz = O=C(OCc1ccccc1)*; ξP = O=C(O)C1CCCN1; CH2Cl = ClC*

One assay relates to prolyl endopeptidase.
Assay: not given
Conditions: in words; J. Neurochem., 41, 69 (1983); cited from earlier work.
In the case of `O=CC1CCCN1C(=O)[C@@H]1CCCN1C(=O)OCc1ccccc1` (stereo partly drawn) [N-benzyloxycarbonyl-L-propyl-prolinal] (Cbz-Pro-[ξP]-aldehyde), the inhibits prolyl endopeptidase result is recorded as “strongly inhibits prolyl endopeptidase”.
On to `O=C(NCC(=O)N1CCC[C@H]1C(=O)CCl)OCc1ccccc1` [N-benzyloxycarbonyl-glycyl-L-prolyl-chloromethane] (Cbz-Gly-Pro-CH2Cl), for which the inhibits prolyl endopeptidase result was “strongly inhibits prolyl endopeptidase”.

In a further assay the target is T1, prolyl endopeptidase (Bos taurus, UniProt Q9XTA2).
T1 construct: prolyl endopeptidase which was purified from bovine brain; from tissue; host or cells: bovine brain
T1 sequence (Q9XTA2 whole entry): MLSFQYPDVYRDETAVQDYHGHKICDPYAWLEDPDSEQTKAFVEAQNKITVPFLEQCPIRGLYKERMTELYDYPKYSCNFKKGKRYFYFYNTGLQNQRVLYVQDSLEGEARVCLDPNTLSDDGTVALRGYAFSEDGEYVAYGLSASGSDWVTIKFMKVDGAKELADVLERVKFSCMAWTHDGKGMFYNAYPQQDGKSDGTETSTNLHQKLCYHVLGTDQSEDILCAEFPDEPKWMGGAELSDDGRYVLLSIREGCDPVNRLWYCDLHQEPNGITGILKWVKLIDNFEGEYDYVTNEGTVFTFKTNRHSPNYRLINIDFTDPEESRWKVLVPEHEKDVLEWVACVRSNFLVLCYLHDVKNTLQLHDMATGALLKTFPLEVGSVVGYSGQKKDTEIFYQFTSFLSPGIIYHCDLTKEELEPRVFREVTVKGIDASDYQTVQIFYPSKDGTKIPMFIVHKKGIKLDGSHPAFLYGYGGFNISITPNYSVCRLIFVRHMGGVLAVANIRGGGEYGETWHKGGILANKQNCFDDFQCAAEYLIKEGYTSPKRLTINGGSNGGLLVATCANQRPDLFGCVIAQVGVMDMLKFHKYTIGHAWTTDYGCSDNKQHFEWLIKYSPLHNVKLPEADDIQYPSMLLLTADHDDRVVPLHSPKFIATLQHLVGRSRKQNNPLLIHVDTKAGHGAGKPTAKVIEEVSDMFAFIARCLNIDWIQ
Nature of the assay: Prolyl endopeptidase inhibitory activity in vitro. It is filed as biochemical. Conditions: prolyl endopeptidase purified from bovine brain, pH 7.5, 37° C., substrate N-benzyloxycarbonyl-glycyl-prolyl-p-nitroanilide, 30 mins' incubation, read-out: Concentration for 50% inhibition IC50. The method, then:
Inhibitory activity of prolyl endopeptidase in vitro was measured by the following test system.
A mixed solution of 20 mM tris-HCl buffer (pH 7.5; 935 μl; containing 10 mM EDTA and 10 mM mercaptoethanol), a solution of a compound of the present invention in DMSO (10 μl) and a solution of prolyl endopeptidase which was purified from bovine brain (0.13 unit; prepared by the method described in J. Biochem., 94, 1179 (1983)) in tris-HCl buffer (15 μl) was preincubated for 15 mins at 37° C.
To the solution, 5 mM of N-benzyloxycarbonyl-glycyl-prolyl-p-nitroanilide (40 μl) in a mixture of 40% dioxane-60% water was added. The solution was incubated for 1 min at the same temperature.
Optical absorption (a1) at 405 nm of the solution, and optical absorption (a2) at 405 nm of the solution after 30 mins' further incubation at 37° C. were measured.
Optical absorptions (b1 and b2) of the solutions using DMSO instead of the solution of the compound of the present invention were also measured.
Inhibitory ratio was calculated by the following expression and IC50 (required concentration for 50% inhibition) was obtained (See Protein, Nucleic acid and Enzyme 25(6), 513, 1980.). [formula]
Consider `O=C[C@@H]1CCCN1C(=O)[C@@H]1CCC[C@H]1C(=O)CCc1ccccc1` (mixture of isomers) [1 (b), N-[trans-2-(3-phenylpropanoyl)cyclopentanecarbonyl]-L-prolinal], for which the IC50 was found to be 0.014 µM.
Same read-out and setting: the value for `O=C[C@@H]1CCCN1C(=O)[C@@H]1CCCC[C@H]1C(=O)CCc1ccccc1` (mixture of isomers) [1 (c), N-[trans-2-(3-phenylpropanoyl)cyclohexanecarbonyl]-L-prolinal] was 0.024 µM.
Still for that read-out and setting: the value for `O=C[C@@H]1CCCN1C(=O)CCC(=O)CCc1ccccc1` [1 (a), N-(6-phenyl-4-oxohexanoyl) L-prolinal] was 0.12 µM; that for `CC(C)C(C(=O)CCCCc1ccccc1)C(=O)N1CCC[C@H]1C=O` (stereo partly drawn) [1 (d), N-(2RS-isopropyl-3-oxo-7-phenylheptanoyl)-L-prolinal] was 0.15 µM.
The same measure, in the same setting: the value for `O=C[C@@H]1CCCN1C(=O)CCC(=O)CCc1cccc(Cl)c1` [1 (e), N-[6-(3-chlorophenyl)-4-oxohexanoyl]-L-prolinal] was 0.05 µM; that for `O=C[C@@H]1CCCN1C(=O)CCC(=O)CCCCc1ccccc1` [1 (f), N-(4-oxo-8-phenyloctanoyl)-L-prolinal] was 0.062 µM; that for `COc1ccc(CCC(=O)CCC(=O)N2CCC[C@H]2C=O)cc1` [1 (g), N-[6-(4-methoxyphenyl)-4-oxohexanoyl]-L-prolinal] was 0.084 µM.
Turning to `O=C[C@@H]1CCCN1C(=O)CCC(=O)CCc1ccc(Cl)cc1` [1 (h), N-[6-(4-chlorophenyl)-4-oxohexanoyl]-L-prolinal], the IC50 turned out to be 0.029 µM.
On the same count and under the same terms, the value for `Cc1ccc(CCC(=O)CCC(=O)N2CCC[C@H]2C=O)cc1` [1 (i), N-[6-(4-methylphenyl)-4-oxohexanoyl]-L-prolinal] was 0.011 µM; that for `O=C[C@@H]1CCCN1C(=O)CCC(=O)CCCc1ccccc1[N+](=O)[O-]` [1 (j), N-[7-(2-nitrophenyl)-4-oxoheptanoyl]-L-prolinal] was 0.032 µM.
As to `O=C[C@@H]1CCCN1C(=O)CCC(=O)CCc1cccc2ccccc12` [1 (k), N-[6-(1-naphthyl)-4-oxohexanoyl]-L-prolinal], the IC50 worked out at 0.018 µM.
Regarding `O=C[C@@H]1CCCN1C(=O)CCC(=O)CCc1ccc2ccccc2c1` [1 (l), N-[6-(2-naphthyl)-4-oxohexanoyl]-L-prolinal], the IC50 amounted to 0.039 µM.
Still for that read-out and setting: the value for `O=C[C@@H]1CCCN1C(=O)CCC(=O)CCc1ccc(C(F)(F)F)cc1` [1 (m), N-[4-oxo-6-(p-trifluoro-methylphenyl)hexanoyl]-L-prolinal] was 0.015 µM.
On the same count and under the same terms, the value for `O=C[C@@H]1CCCN1C(=O)CCC(=O)CCCc1ccccc1` [Example 1, N-(7-phenyl-4-oxoheptanoyl)-L-prolinal] was 0.027 µM.
